Assay results: ChEMBL document CHEMBL1201862, “PubChem BioAssay data set” (2004)
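Where inhibition never reached the appropriate level, the endpoint shown equals the highest concentration tested. Otherwise, values were interpolated linearly from a five-concentration, 48-hour dose response in 96-well plates. Abbreviation: GI50, concentration required for 50% inhibition of growth.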 The source made the active and inactive calls. Rule as the data show it: active = GI50 up to about 1.1 µM and inactive = higher.

Assays:
Assay in all cases: NCI tumour cell line growth inhibition, 48 h
ACHN = system: ACHN
HL-60 = system: HL-60
KM12 = system: KM12
LXFL 529 = system: LXFL 529
NCI-H226 = system: NCI-H226
NCI-H23 = system: NCI-H23
OVCAR-4 = system: OVCAR-4
SF-295 = system: SF-295
SK-MEL-28 = system: SK-MEL-28
SK-MEL-2 = system: SK-MEL-2
SK-MEL-5 = system: SK-MEL-5
SNB-75 = system: SNB-75
SR = system: SR
SW-620 = system: SW-620
UACC-62 = system: UACC-62
HCC 2998 = system: HCC 2998

Measured: GI50

Cc1ccc(NCCO)cc1
inactive: ACHN > 100 µM | HL-60 > 100 µM | KM12 > 100 µM | LXFL 529 > 100 µM | NCI-H226 > 100 µM | NCI-H23 > 100 µM | OVCAR-4 > 100 µM | SF-295 > 100 µM | SK-MEL-28 > 100 µM | SK-MEL-2 > 100 µM | SK-MEL-5 > 100 µM | SNB-75 > 100 µM | SR > 100 µM | SW-620 > 100 µM | UACC-62 > 100 µM

O=C1CCC2(c3ccccc3)Nc3ccc(Cl)cc3N12 (centres undefined)
inactive: ACHN > 100 µM | HCC 2998 > 100 µM | HL-60 > 100 µM | KM12 > 100 µM | LXFL 529 > 100 µM | NCI-H226 > 100 µM | NCI-H23 > 100 µM | OVCAR-4 > 100 µM | SF-295 > 100 µM | SK-MEL-28 > 100 µM | SK-MEL-2 > 100 µM | SK-MEL-5 > 100 µM | SNB-75 37.7 µM | SW-620 > 100 µM | UACC-62 > 100 µM

Cc1ccc(NC(=O)CSc2nnc(Cc3ccccc3)o2)c(C)c1
inactive: ACHN > 100 µM | HL-60 > 100 µM | KM12 > 100 µM | LXFL 529 > 100 µM | NCI-H226 > 100 µM | NCI-H23 > 100 µM | OVCAR-4 > 100 µM | SF-295 > 100 µM | SK-MEL-28 > 100 µM | SK-MEL-2 > 100 µM | SK-MEL-5 > 100 µM | SNB-75 > 100 µM | SR > 100 µM | SW-620 > 100 µM | UACC-62 > 100 µM

Cc1cn2cc(-c3ccncc3)nc2s1
inactive: ACHN > 100 µM | HCC 2998 > 100 µM | HL-60 > 19.8 µM | KM12 > 100 µM | LXFL 529 > 100 µM | NCI-H226 > 100 µM | NCI-H23 > 100 µM | OVCAR-4 > 82 µM | SF-295 > 100 µM | SK-MEL-28 > 100 µM | SK-MEL-2 > 100 µM | SK-MEL-5 > 100 µM | SNB-75 > 100 µM | SW-620 > 50 µM | UACC-62 > 100 µM

COc1ccc(/C(C#N)=C2/O/C(=N/N)C(c3ccc(OC)c(OC)c3)C2=O)cc1OC (centres undefined)
inactive: ACHN > 100 µM | HL-60 > 100 µM | KM12 > 100 µM | LXFL 529 > 100 µM | NCI-H226 > 100 µM | NCI-H23 > 100 µM | SF-295 > 100 µM | SK-MEL-28 > 100 µM | SK-MEL-2 > 100 µM | SK-MEL-5 > 100 µM | SNB-75 > 100 µM | SR > 100 µM | SW-620 > 100 µM | UACC-62 > 100 µM
